In ChEMBL document CHEMBL1201862, “PubChem BioAssay data set” (2004):
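Cultured in 96-well plates, cells were exposed to test compound for 48 hours across five concentrations. GI50 is the concentration that inhibits growth by half.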 Activity calls are given as the source filed them. No stated cut-off is given here; in the data, active = GI50 up to about 1.1 µM and inactive = higher.

Assays:
Assay in all cases: NCI anticancer screen, dose series, 48 h
DU-145 = system: DU-145
RXF 393 = system: RXF 393
NCI-H460 = system: NCI-H460
HCC 2998 = system: HCC 2998
HCT-116 = system: HCT-116
SNB-19 = system: SNB-19
HOP-92 = system: HOP-92
OVCAR-8 = system: OVCAR-8
SN12C = system: SN12C
UO-31 = system: UO-31
IGROV-1 = system: IGROV-1
K562 = system: K562
A498 = system: A498
MOLT-4 = system: MOLT-4
SW-620 = system: SW-620
MCF7 = system: MCF7
SF-539 = system: SF-539
SK-OV-3 = system: SK-OV-3
RPMI-8226 = system: RPMI-8226
HL-60 = system: HL-60

SMILES	GI50 (DU-145)	GI50 (RXF 393)	GI50 (NCI-H460)	GI50 (HCC 2998)	GI50 (HCT-116)	GI50 (SNB-19)	GI50 (HOP-92)	GI50 (OVCAR-8)	GI50 (SN12C)	GI50 (UO-31)	GI50 (IGROV-1)	GI50 (K562)	GI50 (A498)	GI50 (MOLT-4)	GI50 (SW-620)	GI50 (MCF7)	GI50 (SF-539)	GI50 (SK-OV-3)	GI50 (RPMI-8226)	GI50 (HL-60)
CN(C)CS/C(N)=N\C(O)C(Cl)(Cl)Cl (configuration not stated)	> 100 µM (inactive)	> 100 µM (inactive)	> 100 µM (inactive)	> 100 µM (inactive)	> 100 µM (inactive)	> 100 µM (inactive)	> 100 µM (inactive)	> 100 µM (inactive)	> 100 µM (inactive)	> 100 µM (inactive)	> 100 µM (inactive)	> 100 µM (inactive)	> 100 µM (inactive)	> 100 µM (inactive)	> 100 µM (inactive)	–	–	–	–	–
O/N=N/c1ccc2ccccc2n1	> 100 µM (inactive)	–	> 100 µM (inactive)	–	> 100 µM (inactive)	> 100 µM (inactive)	–	> 100 µM (inactive)	> 100 µM (inactive)	> 100 µM (inactive)	> 100 µM (inactive)	> 100 µM (inactive)	72.9 µM (inactive)	> 100 µM (inactive)	> 100 µM (inactive)	> 100 µM (inactive)	> 100 µM (inactive)	> 100 µM (inactive)	> 100 µM (inactive)	> 100 µM (inactive)
CCOC(=O)C1(C/C=C\CBr)CCCC1=O (configuration not stated)	27.5 µM (inactive)	16.6 µM (inactive)	–	–	19.5 µM (inactive)	38.3 µM (inactive)	–	30.1 µM (inactive)	18.4 µM (inactive)	21.9 µM (inactive)	24.9 µM (inactive)	–	> 100 µM (inactive)	–	22.4 µM (inactive)	11.5 µM (inactive)	24.6 µM (inactive)	83.9 µM (inactive)	–	–
CCOC(=O)c1c(N2CCCC2)nsc1Nc1ccccc1	> 100 µM (inactive)	> 100 µM (inactive)	> 100 µM (inactive)	> 100 µM (inactive)	> 100 µM (inactive)	> 100 µM (inactive)	40.6 µM (inactive)	> 100 µM (inactive)	> 100 µM (inactive)	27.5 µM (inactive)	> 100 µM (inactive)	> 100 µM (inactive)	> 100 µM (inactive)	> 100 µM (inactive)	> 100 µM (inactive)	–	> 100 µM (inactive)	–	> 100 µM (inactive)	> 100 µM (inactive)
CC(=O)NC1C(OCc2ccccc2)OC(CO)C(O)C1OC(C)C(=O)NC(C(=O)NC(CCC(=O)NCCCNc1ccc([N+](=O)[O-])c2[nH]c3ccccc3c(=O)c12)C(N)=O)C(C)C (configuration not stated)	> 100 µM (inactive)	–	> 100 µM (inactive)	–	> 100 µM (inactive)	> 100 µM (inactive)	> 100 µM (inactive)	> 100 µM (inactive)	> 100 µM (inactive)	> 100 µM (inactive)	> 100 µM (inactive)	–	> 100 µM (inactive)	> 100 µM (inactive)	> 100 µM (inactive)	> 100 µM (inactive)	> 100 µM (inactive)	> 100 µM (inactive)	–	> 100 µM (inactive)
N[C@H]1C2C3CC4C5CC(C42)C1(c1ccccc1)C53 (some centres not stated)	–	45.1 µM (inactive)	> 100 µM (inactive)	29.7 µM (inactive)	> 100 µM (inactive)	> 100 µM (inactive)	65.8 µM (inactive)	> 100 µM (inactive)	> 100 µM (inactive)	> 100 µM (inactive)	> 100 µM (inactive)	> 100 µM (inactive)	> 100 µM (inactive)	> 100 µM (inactive)	> 100 µM (inactive)	–	> 100 µM (inactive)	> 100 µM (inactive)	> 100 µM (inactive)	> 100 µM (inactive)
COc1cc(C(=O)N[C@H]2CCc3cc(OC)c(OC)c(OC)c3-c3ccc(SC)c(=O)cc32)cc(OC)c1OC	–	0.00752 µM (active)	0.00615 µM (active)	0.0113 µM (active)	0.00857 µM (active)	0.00871 µM (active)	0.06 µM (active)	0.00813 µM (active)	0.0204 µM (active)	0.019 µM (active)	0.0166 µM (active)	0.00583 µM (active)	0.0403 µM (active)	0.00916 µM (active)	0.00741 µM (active)	–	0.00515 µM (active)	0.00655 µM (active)	0.0115 µM (active)	0.00847 µM (active)
C/C(N)=[N+](/C)[O-]	–	> 100 µM (inactive)	25.4 µM (inactive)	36.9 µM (inactive)	> 100 µM (inactive)	–	> 100 µM (inactive)	> 100 µM (inactive)	92.9 µM (inactive)	> 100 µM (inactive)	> 100 µM (inactive)	39.5 µM (inactive)	> 100 µM (inactive)	> 100 µM (inactive)	–	–	69.2 µM (inactive)	> 100 µM (inactive)	> 100 µM (inactive)	> 100 µM (inactive)
N#Cc1c(-c2ccccc2)c(C#N)c(=S)n(C2OC(CO)C(O)C(O)C2O)c1O (configuration not stated)	> 100 µM (inactive)	> 100 µM (inactive)	> 100 µM (inactive)	–	–	> 100 µM (inactive)	–	> 100 µM (inactive)	> 100 µM (inactive)	> 100 µM (inactive)	> 100 µM (inactive)	> 100 µM (inactive)	> 100 µM (inactive)	> 100 µM (inactive)	> 100 µM (inactive)	> 100 µM (inactive)	> 100 µM (inactive)	> 100 µM (inactive)	> 100 µM (inactive)	> 100 µM (inactive)
COc1cccc2cc(C(N)=O)c(=N)oc12	92.5 µM (inactive)	70.5 µM (inactive)	37.2 µM (inactive)	41.3 µM (inactive)	28.6 µM (inactive)	82 µM (inactive)	81.8 µM (inactive)	50 µM (inactive)	39.4 µM (inactive)	–	35.5 µM (inactive)	> 100 µM (inactive)	> 100 µM (inactive)	> 100 µM (inactive)	99.1 µM (inactive)	–	41.5 µM (inactive)	49.9 µM (inactive)	90.2 µM (inactive)	58.7 µM (inactive)
COC(=O)[C@@H]1C[C@H](c2ccc(OC)c(OC)c2)OC1=O.COC(=O)[C@H]1C[C@H](c2ccc(OC)c(OC)c2)OC1=O	–	> 100 µM (inactive)	> 100 µM (inactive)	61.9 µM (inactive)	> 100 µM (inactive)	> 100 µM (inactive)	> 100 µM (inactive)	> 100 µM (inactive)	> 100 µM (inactive)	> 100 µM (inactive)	> 100 µM (inactive)	> 100 µM (inactive)	> 100 µM (inactive)	> 100 µM (inactive)	> 100 µM (inactive)	–	> 100 µM (inactive)	> 100 µM (inactive)	> 100 µM (inactive)	> 100 µM (inactive)
C/C(=N\O)c1ccc2ccc3ccccc3c2c1	33.3 µM (inactive)	34.3 µM (inactive)	42.6 µM (inactive)	–	90.6 µM (inactive)	62.8 µM (inactive)	–	21.6 µM (inactive)	30.8 µM (inactive)	35.1 µM (inactive)	44 µM (inactive)	25.5 µM (inactive)	–	18.5 µM (inactive)	30.6 µM (inactive)	41.1 µM (inactive)	17.5 µM (inactive)	> 100 µM (inactive)	34.6 µM (inactive)	22.2 µM (inactive)
C/N=N/N(C)C(=O)NC	–	> 100 µM (inactive)	> 100 µM (inactive)	> 100 µM (inactive)	> 100 µM (inactive)	> 100 µM (inactive)	> 100 µM (inactive)	> 100 µM (inactive)	> 100 µM (inactive)	> 100 µM (inactive)	> 100 µM (inactive)	> 100 µM (inactive)	> 100 µM (inactive)	> 100 µM (inactive)	> 100 µM (inactive)	–	> 100 µM (inactive)	> 100 µM (inactive)	> 100 µM (inactive)	> 100 µM (inactive)
Cc1ccc(Sc2ccccc2C23OC(C)(C4C(=O)N(c5ccccc5)C(=O)C42)N(C)C3=O)cc1 (configuration not stated)	> 100 µM (inactive)	85.7 µM (inactive)	> 100 µM (inactive)	–	> 100 µM (inactive)	> 100 µM (inactive)	42.8 µM (inactive)	> 100 µM (inactive)	90.2 µM (inactive)	> 100 µM (inactive)	> 100 µM (inactive)	> 100 µM (inactive)	86.9 µM (inactive)	> 100 µM (inactive)	> 100 µM (inactive)	–	> 100 µM (inactive)	> 100 µM (inactive)	–	> 100 µM (inactive)
COc1ccc(OC)c(-c2cn3c(n2)sc2ccccc23)c1	> 100 µM (inactive)	> 100 µM (inactive)	> 100 µM (inactive)	–	> 100 µM (inactive)	> 100 µM (inactive)	15.8 µM (inactive)	94.8 µM (inactive)	> 100 µM (inactive)	> 100 µM (inactive)	> 100 µM (inactive)	> 100 µM (inactive)	–	> 100 µM (inactive)	> 100 µM (inactive)	3.44 µM (inactive)	> 100 µM (inactive)	> 100 µM (inactive)	> 100 µM (inactive)	> 100 µM (inactive)
CC1=[N+]([O-])c2ccccc2C(=O)C1=O	–	81.1 µM (inactive)	61 µM (inactive)	> 100 µM (inactive)	48 µM (inactive)	93.8 µM (inactive)	69 µM (inactive)	> 100 µM (inactive)	> 100 µM (inactive)	> 100 µM (inactive)	> 100 µM (inactive)	29.1 µM (inactive)	> 100 µM (inactive)	43.2 µM (inactive)	89.5 µM (inactive)	–	> 100 µM (inactive)	> 100 µM (inactive)	35.5 µM (inactive)	40.3 µM (inactive)
